Laboratory results from patent US5998580A, “Photosensitive caged macromolecules” (priority 1995, dated 1999).
Where no end group is shown, it is not given here. The star is where a group is joined. α‑carboxy 2‑nitrobenzyl = O=C(O)C(c1ccccc1[N+](=O)[O-])*

Key:
[1] = system: Smooth muscle myosin light chain kinase (MLCK); assay: inhibition of smooth muscle myosin light chain kinase (MLCK) activity, 32P incorporation into light chain; type: biochemical; settings: before photolysis; 100 nM calmodulin
Protocol: (§1) The standard photolysis protocol involves exposure of caged peptide (0.1 to 1 ml; 0.1 mM to 1 mM in 50 mM Tris pH 7.5) in a quartz cuvette (1 cm path length) to the beam of a continuous 75 watt Xenon arc lamp that is filtered through a 300-350 nm band pass filter (UG-11 filter). This standard in vitro photolysis protocol was carried out for 30 minutes at room temperature.
Smooth muscle myosin light chain kinase (MLCK) (0.5 μg/ml) was incubated with various concentrations of synthetic caged peptide (e.g., 1-CAG-RS-20 and 9-NPG-RS-20) in the presence of 100 nM calmodulin, 0.1 mM CaCl2, 100 mM KCL, 0.2 mg/ml myosin regulatory light chain, 1 mM MgCl2, and 30 mM Tris-HCL (pH 7.5) at 25° C. for 5 minutes. 1-CAG-RS-20 and 9-NPG-RS-20 were photolyzed using the standard photolysis protocol (see above) and the uncaged peptide was purified away from by-products and caged peptides prior to the enzymatic assay using reverse phase HPLC. The phosphorylation reaction was started by adding 50 μM ^32 P-ATP. The incorporation of ^32 P into the light chain was measured by scintillation counter and the inhibitory effect of the peptide on myosin light chain kinase was determined.

[2] = system: single smooth muscle cells; assay: calcium-dependent enhancement of calcium (inward) current after repetitive depolarization in single smooth muscle cells; type: cell-based; settings: cell injected with peptide
Protocol: The in vivo effects of 1-CAG-RS-20 on calcium-dependent enhancement of calcium current in smooth muscle were evaluated according to the methods described by McCarron et al. (Nature 357: 74-77). Photolysis of 1-CAG-RS-20 was accomplished by selectively exposing cells to a beam of UV irradiation using a light source fitted with a controllable shutter. In addition, experiments were carried out by recording phase contrast images in the far red portion of the spectrum to monitor the effects of 1-CAG-RS-20 on the contractile responses of the cells to Ca^2+ influx resulting from depolarization. Data was analyzed according to the methods described in Itoh et al. (Nature 338: 164-167, 1989).
Shown in these panels (FIG. 3) are the inward currents resulting from depolarization both before and after the train of depolarizing pulses. The trace labelled #1 was obtained before the train and that after the train is labelled #2 (FIG. 3C).

[3] = system: toad stomach smooth muscle cells; assay: rate of shortening of single smooth muscle cells (calcium-mediated contraction); type: cell-based; settings: 200 μM; after photolysis versus without photolysis (FIG. 5)
Protocol: The in vivo effects of 1-CAG-RS-20 (200 μM) on the rate of shortening of single smooth muscle cells both before and after UV exposure was performed essentially as described in Itoh et al. (Nature 338: 164-67, 1989). Images of the cells were recorded using phase contrast optics and measurements of cell length were carried out as described by Itoh et al., supra. An interactive computer analysis program was used to measure cell length at successive intervals after the onset of cell membrane depolarization and subsequent increase in cytoplasmic Ca^2+ concentration that normally triggers contraction.

calmodulin = target: T1, calmodulin (Homo sapiens, UniProt P0DP23); assay: binding to calmodulin agarose column before and after photolysis
T1 construct: purchased Sigma Chemical Co
Protocol: The 1-CAG-RS-20 was evaluated for its ability to bind a calmodulin agarose column before and after photolysis. This experiment was carried out as follows. 5 mls of calmodulin agarose (Sigma Chemical Co.) was poured into a 1 cm×10 cm glass column and equilibrated with 50 mM Tris pH 7.5, 1 mM CaEGTA, pCa 4.5 (where pCa=-log free […]. 100 nmoles 1CAGRS-20 in 1 ml of the same solution was loaded onto the column and eluted with the same solution while 14×1.5 ml fractions were collected. The elutant was then changed to 50 mM Tris pH 7.5, 1 mM EGTA, pCa 9 and 14×1.5 ml additional fractions were collected. Each fraction was analyzed for peptide by UV absorbance at 272 nm. A second 100 nmole aliquot of 1-CAG-RS-20 was irradiated by the standard photolysis protocol (see below) and loaded onto the calmodulin agarose column after extensive washing and reequilibration in the original pCa 4.5 solution.
as §1

“1-CAG-RS-20: RS-20 caged analog containing caged tyrosine (α-carboxy 2-nitrobenzyl) at position 5 (ARRKY(α‑carboxy 2‑nitrobenzyl)QKTGHAVRAIGRLSS)” was tested, and the “inhibition of MLCK activity” value [1] was “failed to significantly inhibit MLCK activity”, the “enhancement of inward current following a train of depolarizing stimuli” value ([2]; following photolysis (FIG. 3D)) was “blocked” and the “enhancement of inward current following a train of depolarizing stimuli” value ([2]; prior to exposure to ultraviolet light (FIG. 3C)) was “the inward current was enhanced”. The “rate of cell shortening” value [3] was “shortened more slowly”, the “binding to calmodulin agarose column” value (calmodulin; before photolysis, in the presence of Ca2+ (pCa 4.5), 100 nmoles loaded) was “does not bind appreciably” and the “binding to calmodulin agarose column” value (calmodulin; following photolysis, in the presence of Ca2+, binding reversed by EGTA) was “binds strongly”.
